The record followed here is ChEMBL document CHEMBL3880418, “Pyripyropene derivative having ACAT2 inhibiting activity and stable to metabolizing enzymes” (2013).

Usually half-life stands for how long it takes for the measured level to halve.

Data set [1] is described as follows: Half life in Sprague-Dawley rat liver microsomes at 6 ug/ml by HPLC method. Type of data set: ADME. (Microsomes from liver hold many membrane-bound enzymes, among them those of drug oxidation.)
The target of data set [2] is T1, Sterol O-acyltransferase 2 (Mus musculus) (UniProt O88908).
T1 sequence (whole entry): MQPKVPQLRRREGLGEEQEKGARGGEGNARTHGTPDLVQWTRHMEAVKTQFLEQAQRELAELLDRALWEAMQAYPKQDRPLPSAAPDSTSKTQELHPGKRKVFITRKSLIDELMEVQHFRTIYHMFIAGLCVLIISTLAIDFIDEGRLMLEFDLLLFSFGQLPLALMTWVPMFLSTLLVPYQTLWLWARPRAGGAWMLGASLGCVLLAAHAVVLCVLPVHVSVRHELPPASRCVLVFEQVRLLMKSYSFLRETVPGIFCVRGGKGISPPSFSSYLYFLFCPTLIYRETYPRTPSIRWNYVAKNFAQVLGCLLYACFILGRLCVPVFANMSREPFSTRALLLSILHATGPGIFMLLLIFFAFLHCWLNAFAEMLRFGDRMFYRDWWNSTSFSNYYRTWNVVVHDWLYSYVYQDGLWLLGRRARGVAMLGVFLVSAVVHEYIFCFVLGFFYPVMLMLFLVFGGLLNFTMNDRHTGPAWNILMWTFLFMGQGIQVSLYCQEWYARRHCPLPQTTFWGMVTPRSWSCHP
Briefly: Ratio of compound IC50 to PRD 043 IC50 for ACAT2 in mouse hepatic microsomal membranes. The data set is classed as cell membranes. Conditions: Liver, Microsomal Membrane.

Turning to `CCCCCC(=O)OC[C@@]1(C)[C@@H]2C[C@H](OC(=O)c3ccc(C#N)cc3)[C@@]3(C)Oc4cc(-c5cccnc5)oc(=O)c4[C@H](O)[C@@H]3[C@@]2(C)CC[C@@H]1OC(=O)CCCCC`, the half-life at 6 ug/ml in data set [1] is > 9 h. For the same compound, the Ratio IC50 in data set [2] is < 20.
For the compound `C[C@@]12CO[C@@H](c3ccccc3F)O[C@H]1CC[C@@]1(C)[C@H]2C[C@H](OC(=O)c2ccc(C#N)cc2)[C@@]2(C)Oc3cc(-c4cccnc4)oc(=O)c3[C@H](O)[C@H]12`, in data set [1], the half-life at 6 ug/ml was > 9 h. The Ratio IC50 in data set [2] is < 20.
The matching figures for `CC(=O)O[C@H]1CC[C@]2(C)[C@H]3[C@@H](O)c4c(cc(-c5cccnc5)oc4=O)O[C@]3(C)[C@@H](OC(=O)c3ccc(C#N)cc3)C[C@H]2[C@@]1(C)C(=O)O`: > 9 h and < 20.
The matching figures for `C[C@@]12CO[C@@H](c3ccccc3F)O[C@H]1CC[C@@]1(C)[C@H]2C[C@H](OC(=O)c2ccc(F)cc2)[C@@]2(C)Oc3cc(-c4cccnc4)oc(=O)c3[C@H](O)[C@H]12`: > 9 h and < 20.
The matching figures for `CN(C)c1ccc([C@@H]2OC[C@@]3(C)[C@@H]4C[C@H](OC(=O)c5ccc(C#N)cc5)[C@@]5(C)Oc6cc(-c7cccnc7)oc(=O)c6[C@H](O)[C@@H]5[C@@]4(C)CC[C@@H]3O2)cc1`: > 9 h and < 20.
Take `CC(=O)OC[C@@]1(C)[C@@H]2C[C@H](OC(=O)c3ccc(C#N)cc3)[C@@]3(C)Oc4cc(-c5cccnc5)oc(=O)c4[C@H](O)[C@@H]3[C@@]2(C)CC[C@@H]1OC(=O)C(C)C`: the half-life at 6 ug/ml in data set [1] is > 9 h. Besides, in data set [2], the Ratio IC50 was < 20.
In the same order, the values of `COc1ccc(CNC(=O)[C@@]2(C)[C@@H](OC(C)=O)CC[C@]3(C)[C@H]4[C@@H](O)c5c(cc(-c6cccnc6)oc5=O)O[C@]4(C)[C@@H](OC(=O)c4ccc(C#N)cc4)C[C@H]32)c(OC)c1` are > 9 h and < 20.
